# Results: patent publication US11541029B2, “High penetration compositions and their applications” (Techfields Pharma Co., Ltd., priority 2008, dated 2023)
# Non-standard residues stand in square brackets, D forms with d. *: point of attachment. Arg(NO2) = N=C(NCCC[C@H](N)C(=O)O)N[N+](=O)[O-]; OCH2CH2CH2CH3 = CCCCO*
# What was measured:
# eyelashes and hairs [1] = experiment: Stimulation of hair growth and eyelash growth by HPCs of prostaglandins; type: in vivo; settings: about 1 ml of 1% in pure water on head skin, more than 1 month
# eyelashes and hairs [2] = experiment: as above; type: in vivo; settings: about 0.2 ml of 1% in pure water near the eyelashes, more than 1 month
# Description: (§1) About 0.2 ml of 1% of HPC of N,N-diethylaminoethyl 11,15-dihydroxy-9-oxoprost-13-en-1-oate.HBr (the HPC of prostaglandin E1), N,N-diethylaminoethyl (Z)-7-{[(1R,2R,3R,5S)-3,5-Dihydroxy-2-[1E,3S]-3-hydroxy-5-phenyl-1-pentenyl]cyclopentyl}-5-N-ethylheptenoate.HBr(the HPC of bimatoprost), (13,14-dihydro-17-phenyl-18,19,20-trinor PGF2αN,N-diethylaminoethyl ester, N,N-diethylaminoethyl (Z)-7-[(1R,2R,3R,5S)-3,5-dihydroxy-2-[(1E,3R)-3-hydroxy-4-[(α,α,α-trifluoro-m-tolyl)oxy]-1-butenyl]cyclopentyl]-5-heptenoate.HBr, or 13,14-dihydro-15-keto-20-ethyl PGF2αN,N-diethylaminoethyl ester in pure water is applied to the skin area close to the eyelashes (0.1 ml solution for each eye).
# as §1, with “1” for “0.2”, “(frontal and parietal areas) on” for “area close to”, “head skull.” for “eyelashes (0.1 ml solution for each eye).”
# [3] = test system: carrageenin-induced swelling of rat hind paw; experiment: Anti-inflammatory activity, carrageenin paw swelling; type: in vivo, rats
# [4] = test system: rats given sterilized E. coli suspension as a pyrogen; experiment: Antipyretic activity of ibuprofen and its HPC (Study A); type: in vivo; settings: 20 mg/kg, oral administration
# [5] = test system: Female Sprague Dawley (SD) rats; experiment: Anti-obesity in Sprague Dawley rats; type: in vivo
# Description: 20 Female Sprague Dawley (SD) rats (20 weeks old, 320-345 g) were divided into 2 groups. In group A, 0.2 ml of water was administered to the back of rat (n=10) twice per day for 30 days. In Group B, 10 mg/kg of H-Val-Pro-Gly-Pro-Arg(NO2)—OCH2CH2CH2CH3.HCl in 0.2 ml of water was administered transdermally to the backs of rats (n=10) twice per day for 30 days.
# [6] = test system: obese DB/DB mice (SLAC/DB/DB); experiment: Anti-obesity in obese mice (SLAC/DB/DB); type: in vivo
# Description: 20 obese DB/DB mice (SLAC/DB/DB) mice (16 weeks old, 55-60 g) were divided into 2 groups. In group A, 0.1 ml of water was administered to the back of mouse (n=10) twice per day for 30 days. In Group B, 15 mg/kg of H-Val-Pro-Gly-Pro-Arg(NO2)—OCH2CH2CH2CH3.HCl in 0.2 ml of water was administered transdermally to the backs of rats (n=10) twice per day for 30 days.
# spinal cord injuries = experiment: Spinal cord injury in paralyzed rats; type: in vivo; settings: 5 mg in 0.2 ml water on area of injury twice per day for 1 months, n=10
# Description: A paralyzed rat was produced by anesthetizing with chloral hydrate first, and then hitting at its spinal cord to induce spinal cord injuries. On the next day, 20 completely paralyzed rats were divided into 2 groups. […] In group B (n=10), 5 mg of diethylaminopropyl acetylsalicylate.HCl in 0.2 ml of pure water was applied to the area of injury (˜2×3 cm^2) twice per day for 1 months. After the treatment, all rats (10/10) in group A were still completely paralyzed. While all rats (10/10) in group B could walk. 4 Rats of group B acted completely normal and the other 6 rats walked more slowly and less confidently than before their injury.
# Tg2576 mouse model of AD = experiment: Anti-Alzheimer disease activity in Tg2576 mice; type: in vivo
# Source text: For many years, efforts have been focused on the development of inhibitors of β-amyloid (Aβ) formation and its related neurotoxic effects. To determine the effect of diethylaminopropyl acetylsalicylate. HCl on in vivo AD accumulation, we administered transdermally diethylaminopropyl acetylsalicylate. […] Three-month-old female transgenic mice overexpressing the human APP gene containing the Swedish mutation that causes familial AD (Tg2576 line) were used for testing the effects of diethylaminopropyl acetylsalicylate.HCl in vivo. 20 Tg2576 mice were divided into 2 groups. […] In group B (n=10), 50 mg/kg of diethylaminopropyl acetylsalicylate.HCl in 0.2 ml of pure water was applied to the back of mouse once per day for 2 months. Then the animals were killed and their brains were removed for analysis. For Aβ analysis, hemibrains were dounce homogenized in 70% formic acid at 150 mg tissue/ml formic acid solution. Homogenates were transferred to a chilled ultracentrifuge and were then spun at 100,000 g for 1 h at 4° C. Supernatants were collected and neutralized with formic acid neutralization buffer (1.0 M Tris base, 0.5 M NaH2PO4, and 0.05% NaN3; 1:20) for Aβ quantitation by ELISA. Aβ40 and Aβ42 were assayed by ELISA. Four individual experiments were performed. To compare across studies, the values for an individual study were normalized using the values obtained for the control animals included in each study. Values represent the mean±SE for the n number shown, after normalizing.
# To determine if the transdermal administration of diethylaminopropyl acetylsalicylate.HCl has beneficial functional consequences, we tested 2 months of diethylaminopropyl acetylsalicylate.HCl (50 mg/kg) in the transgenic model for Alzheimer's disease in which mice develop learning deficits as amyloid accumulates. […] In the diethylaminopropyl acetylsalicylate.HCl (50 mg/kg) treated group, all mice performed superbly on the radial-arm water-maze test of working memory and untreated transgenic mice show memory deficits. […] This therapeutic approach can thus prevent and treat Alzheimer's dementia.
# [7] = 10 mg/kg transdermally twice per day for 30 days
# [8] = 15 mg/kg transdermally twice per day for 30 days
molecule,measurement,setting,value
"CCN(CC)CCOC(=O)CCC/C=C\C[C@@H]1[C@@H](CC[C@@H](O)CCc2ccccc2)[C@H](O)C[C@@H]1O [(13,14-dihydro-17-phenyl-18,19,20-trinor PGF2αN,N-diethylaminoethyl ester]",hair growth,eyelashes and hairs [1],grow longer and fuller
same,eyelash growth,eyelashes and hairs [2],grow longer and fuller
"Br.CCN(CC)CCOC(=O)CCC/C=C\C[C@@H]1[C@@H](/C=C/[C@@H](O)CCc2ccccc2)[C@H](O)C[C@@H]1O [HPC of bimatoprost, N,N-diethylaminoethyl (Z)-7-{[(1R,2R,3R,5S)-3,5-Dihydroxy-2-[1E,3S]-3-hydroxy-5-phenyl-1-pentenyl]cyclopentyl}-5-N-ethylheptenoate.HBr]",hair growth,eyelashes and hairs [1],grow longer and fuller
same,eyelash growth,eyelashes and hairs [2],grow longer and fuller
CCN(CC)CCOC(=O)C(C)c1ccc(CC(C)C)cc1.O=C(O)CC(O)(CC(=O)O)C(=O)O (stereo not drawn) [diethylaminoethyl 2-(p-isobutylphenyl)propionate.citric acid],anti-inflammatory activity (rate of swelling) compared with ibuprofen,[3]; 20 mg/kg (2×10 mg) transdermally,much stronger than that of 100 mg/kg of ibuprofen (oral)
same,anti-inflammatory activity (rate of swelling) compared with ibuprofen,[3]; 50 mg/kg orally,much stronger than that of 100 mg/kg of ibuprofen (oral)
"CCN(CC)CCOC(=O)C(C)c1ccc(CC(C)C)cc1 (stereo not drawn) [HPC of ibuprofen, diethylaminoethyl 2-(ρ-isobutylphenyl) propionate]","anti-inflammatory activities, times stronger than parent drug ibuprofen",[3]; transdermal or oral administrations,more than 5 times
same,antipyretic effect,[4],almost the same effect as 100 mg/kg of ibuprofen
"Br.CCCCCC(O)C=C[C@H]1C(O)CC(=O)[C@@H]1CCCCCCC(=O)OCCN(CC)CC (stereo partly drawn) [HPC of prostaglandin E1, N,N-diethylaminoethyl 11,15-dihydroxy-9-oxoprost-13-en-1-oate.HBr]",hair growth,eyelashes and hairs [1],grow longer and fuller
same,eyelash growth,eyelashes and hairs [2],grow longer and fuller
"CCCCCCCC(=O)CC[C@@H]1[C@@H](C/C=C\CCCC(=O)OCCN(CC)CC)[C@@H](O)C[C@H]1O [13,14-dihydro-15-keto-20-ethyl PGF2αN,N-diethylaminoethyl ester]",hair growth,eyelashes and hairs [1],grow longer and fuller
same,eyelash growth,eyelashes and hairs [2],grow longer and fuller
"Br.CCN(CC)CCOC(=O)CCC/C=C\C[C@@H]1[C@@H](/C=C/[C@@H](O)COc2cccc(C(F)(F)F)c2)[C@H](O)C[C@@H]1O [N,N-diethylaminoethyl (Z)-7-[(1R,2R,3R,5S)-3,5-dihydroxy-2-[(1E,3R)-3-hydroxy-4-[(α,α,α-trifluoro-m-tolyl)oxy]-1-butenyl]cyclopentyl]-5-heptenoate.HBr]",hair growth,eyelashes and hairs [1],grow longer and fuller
same,eyelash growth,eyelashes and hairs [2],grow longer and fuller
H-Val-Pro-Gly-Pro-Arg(NO2)—OCH2CH2CH2CH3.HCl (H-VPGP[Arg(NO2)]-OCH2CH2CH2CH3; also: HCl salt),Food intake (per day & per rat),[5]; [7],17.5 ± 1.2
same,Weight (Day1),[5]; [7],333.5 ± 4.2 g
same,Weight (Day 30),[5]; [7],301.4 ± 3.7 g
same,control group heavier than the peptide treated group,"[5]; rat, in vivo",about 17%
same,Food intake (per day & per rat),[6]; [8],3.9 ± 0.3
same,Weight (Day1),[6]; [8],57.1 ± 1.8 g
same,Weight (Day 30),[6]; [8],53.4 ± 4.7 g
same,control group heavier than the peptide treated group,"[6]; mouse, in vivo",about 26%
CCN(CC)CCCOC(=O)c1ccccc1OC(C)=O.Cl [diethylaminopropyl acetylsalicylate.HCl],rats that acted completely normal after the treatment,spinal cord injuries,4
same,rats that could walk after the treatment,spinal cord injuries,10/10
same,reduction in Aβ42 concentration in the brain,Tg2576 mouse model of AD; 50 mg/kg transdermally once per day for 2 months,70%
same,Aβ42 concentration,"Tg2576 mouse model of AD; 50 mg/kg transdermally once per day for 2 months, ELISA",2.3 ± 0.3 pmol/g tissue
same,"cognitive performance, radial-arm water-maze test of working memory","Tg2576 mouse model of AD; 50 mg/kg, 2 months",performed as well as nontransgenic mice
